One test deals with OCI-AML5 cells. The conditions noted are these: FIG. 5G, 6-day culture. As to the method: FIGS. 5A-5J show the results on experiments assessing the mode of action of Mubritinib for mediating tumor cell death. FIG. 5A: OCI-AML3 leukemic cells were either pre-incubated for 4 hours with 6 mM N-acetyl-cysteine (NAC), a reactive oxygen species (ROS) scavenger, or with vehicle (water) before being treated with 100 nM Mubritinib for 24 h or vehicle (DMSO). […] FIGS. 5C and 5D show the levels of reduced and oxidized levels of glutathione, respectively, in OCI-AML3 treated or not with Mubritinib, as detected by liquid chromatography-mass spectrometry (LC/MS). […] FIG. 5G is a graph depicting dose-response curves upon Mubritinib treatment (6-day culture assay in 384-well plates) of OCI-AML3 and OCI-AML5 cell lines. […]
Patient cells were seeded in 384-well plates at a density of 5,000 cells in 50 μL per well. […] Viable cell counts per well were evaluated after 6 days of culture using the CellTiterGlo® assay (Promega®) according to the manufacturer's instruction. The percent of inhibition was calculated as follows: 100−(100×(mean luminescence(compound)/mean luminescence(DMSO)); where mean-luminescence(compound) corresponds to the average of luminescent signals obtained for the compound-treated cells, and mean-luminescence(DMSO) corresponds to the average of luminescent signals obtained for the control DMSO-treated cells.

Test [1] has as its system OCI-AML3 leukemic cells. The conditions noted are these: acute injection, 1 μM (FIG. 5E). As to the method: Oxygen consumption rates and extracellular acidification rates were measured using a 96-well Seahorse Bioanalyzer XFe96® or XFe24® according to the manufacturer's instructions (Agilent Technologies). Seahorse XF Base medium was supplemented with 1 mM pyruvate, 2 mM glutamine and 10 mM glucose in the case of Mitochondrial Stress Test and with 1 mM pyruvate, 2 mM glutamine and no glucose in the case of Glycolytic Stress Test. The pH of the Seahorse media was then adjusted at 7.4 prior to assay. In brief, leukemic cells were seeded into Seahorse 96-well (or 24-well) plates pre-coated for 3 h with poly-lysine (Sigma-Aldrich, P4707) at a density of 75,000 cells/well in 100 μL (or 150,000 cells/well, in 150 μL) of temperature/CO2 pre-adjusted Seahorse media per well. The Seahorse plates were then centrifuged at 1400 rpm for 5 min. An additional 75 μL (or 375 μL) of Seahorse media was then added and cells were eventually analyzed following the manufacturer's instructions by adding compounds in a constant volume of 25 μL (or 75 μL). Compounds were acutely injected in cells at a final concentration of 1 μM for Mubritinib, 1 μM for Oligomycin, 0.5 μM for FCCP, 0.5 μM for Rotenone/Antimycin A, Glucose 10 mM and 2-Deoxy-Glucose 50 mM.

Another test deals with OCI-AML3 cells. As to the method: (§1) FIGS. 5A-5J show the results on experiments assessing the mode of action of Mubritinib for mediating tumor cell death. FIG. 5A: OCI-AML3 leukemic cells were either pre-incubated for 4 hours with 6 mM N-acetyl-cysteine (NAC), a reactive oxygen species (ROS) scavenger, or with vehicle (water) before being treated with 100 nM Mubritinib for 24 h or vehicle (DMSO). […] FIGS. 5C and 5D show the levels of reduced and oxidized levels of glutathione, respectively, in OCI-AML3 treated or not with Mubritinib, as detected by liquid chromatography-mass spectrometry (LC/MS). […] FIG. 5G is a graph depicting dose-response curves upon Mubritinib treatment (6-day culture assay in 384-well plates) of OCI-AML3 and OCI-AML5 cell lines. FIGS. 5H-J are graphs depicting dose-response curves following treatment of OCI-AML3 and OCI-AML5 cell lines with other ETC inhibitors, namely Oligomycin (inhibitor of complex V, FIG. 5H), Rotenone (inhibitor of complex I, FIG. 5I) and Deguelin (inhibitor of complex I, FIG. 5J).
(§2) Dead cells were stained using Propidium iodide at a final concentration of 1 μg/mL.

Test [2] concerns OCI-AML3 leukemic cells. The conditions noted are these: 500 nM, 24 h (FIG. 5B). The protocol: as §1, §2
In test [3] the test system is Normal primitive CD34-positive cord blood cells. In words: cells. To be noted: Homo sapiens, read-out: EC50 in normal primitive CD34-positive cord blood cells. The protocol: (§3) Patient cells were seeded in 384-well plates at a density of 5,000 cells in 50 μL per well. In the initial screen, compounds were added to seeded cells in serial dilutions (10 dilutions, 1:3, starting from 10 μM or 20 μM), in duplicates. Cells treated with 0.1% DMSO without additional compound were used as negative controls. Viable cell counts per well were evaluated after 6 days of culture using the CellTiterGlo® assay (Promega®) according to the manufacturer's instruction. The percent of inhibition was calculated as follows: 100−(100×(mean luminescence(compound)/mean luminescence(DMSO)); where mean-luminescence(compound) corresponds to the average of luminescent signals obtained for the compound-treated cells, and mean-luminescence(DMSO) corresponds to the average of luminescent signals obtained for the control DMSO-treated cells.

The test system of test [4] is Complex I enzyme activity in OCI-AML3 cells. To be noted: FIG. 8.
Protocol: Complex I activity is determined by following the oxidation of NADH to NAD+ and the simultaneous reduction of a dye which leads to increased absorbance at OD=450 nm.
The subject of the next test is AML patient specimens. In words: Cell dose-response viability assay on AML patient specimens (primary and validation screen). It is filed as cell-based, human. The conditions noted are these: Homo sapiens; poor prognostic triple-mutated specimens (FIG. 3G); read-out: median EC50 in AML specimens with simultaneous mutations in NPM1, DNMT3A and FLT3-ITD. The protocol: frozen AML mono-nucleated cells were thawed at 37° C. in Iscove's modified Dulbecco's medium (IMDM) containing 20% FBS and DNase I (100 μg/mL).
as §3

pEC50: −log10 of the molar value.

`FC(F)(F)c1ccc(/C=C/c2nc(COc3ccc(CCCCn4ccnn4)cc3)co2)cc1` [Mubritinib, 1-(4-{4-[(2-{(E)-2-[4-(trifluoromethyl)phenyl]ethenyl}-1,3-oxazol-4-yl)methoxy]phenyl}butyl)-1H-1,2,3-triazole]: the “sensitivity of OCI-AML5 cells to compound-induced cell death” value in the test with OCI-AML5 cells is “resistant”. For the same compound, the oxygen consumption rate result in the test on OCI-AML3 leukemic cells [1] is recorded as “impaired oxygen consumption rate”. For the same compound, in the test on OCI-AML3 cells (4 hours pre-incubation with 6 mM NAC, then 100 nM Mubritinib for 24 h (FIG. 5A)), the “Mubritinib-induced apoptosis in the presence of the ROS scavenger N-acetyl-cysteine (NAC)” value is “significantly decreased”. The “Annexin V staining (marker of apoptosis)” value in the test with OCI-AML3 cells (24 hours, 100 nM or 10 μM (FIG. 4C)) is listed as “increase in Annexin V staining”. The “number of dead (PI-positive) cells” value in the test with OCI-AML3 cells (27 hours of treatment, compared to DMSO (FIG. 4B)) is recorded as “increase in the number of dead (PI-positive) cells”. Further, the “live cell counts (Propidium Iodide-negative cells)” value with OCI-AML3 cells (four days of treatment, different concentrations, dose-dependent (FIG. 4A)) was “reduction of live cell counts”. The “level of ROS activity (hydroxyl, peroxyl) by DCFDA” value in the test on OCI-AML3 leukemic cells [2] is “increased”. The negative logarithm of the EC50 (pEC50) in test [3] is under 6.43; in the test on AML patient specimens, 7.02. The “inhibitory effect on complex I in diaphorase-type (NADH oxidation) assay” value in test [4] is “NADH-independent”.
